In experiment [1] the target is T1, human SGLT1 (Homo sapiens, UniProt P13866).
T1 construct: Full-length human SGLT1 cDNA on pDream2.1 expression vector was obtained from GenScript Corporation; host or cells: COS-7 cells
T1 sequence (P13866 1-664): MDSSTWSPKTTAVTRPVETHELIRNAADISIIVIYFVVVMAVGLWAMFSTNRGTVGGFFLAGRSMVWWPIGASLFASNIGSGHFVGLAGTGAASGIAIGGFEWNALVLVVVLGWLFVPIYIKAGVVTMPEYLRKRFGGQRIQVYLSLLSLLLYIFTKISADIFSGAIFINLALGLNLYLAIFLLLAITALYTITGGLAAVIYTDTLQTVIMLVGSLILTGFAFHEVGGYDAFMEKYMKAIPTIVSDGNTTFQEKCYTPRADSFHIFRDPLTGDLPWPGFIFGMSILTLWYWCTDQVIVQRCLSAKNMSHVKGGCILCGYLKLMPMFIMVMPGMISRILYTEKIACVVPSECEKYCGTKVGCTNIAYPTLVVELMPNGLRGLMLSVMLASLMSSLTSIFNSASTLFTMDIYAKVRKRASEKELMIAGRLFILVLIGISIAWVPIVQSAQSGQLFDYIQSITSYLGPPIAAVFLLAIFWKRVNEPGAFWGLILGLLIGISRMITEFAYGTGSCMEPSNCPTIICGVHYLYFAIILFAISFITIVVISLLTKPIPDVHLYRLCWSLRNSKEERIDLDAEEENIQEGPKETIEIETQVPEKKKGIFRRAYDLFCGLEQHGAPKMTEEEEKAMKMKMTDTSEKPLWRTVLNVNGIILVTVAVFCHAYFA
Nature of the experiment: Methyl-α-D-[U-14C]glucopyranoside uptake assay, human SGLT1 expressing cells. The class given is cell-based. The note with it: COS-7 cells expressing human SGLT1, 2 h incubation. How it is done:
Full-length human SGLT1 cDNA on pDream2.1 expression vector was obtained from GenScript Corporation and propagated in Escherichia coli strain DH5α using Luria-Bertani (LB) medium containing ampicillin. Plasmid DNA was isolated using the QIAGEN Plasmid Midi Kit (QIAGEN Inc.). […] Transfected cells were stored in DMEM containing 10% dimethyl sulfoxide (DMSO) at −80° C.
(§1) Cells expressing SGLT1 or SGLT2 were seeded on 96-well ScintiPlate scintillating plates (PerkinElmer, Inc.) in DMEM containing 10% FBS (1×10^5 cells per well in 100 μl medium) incubated at 37° C. under 5% CO2 for 48 h prior to the assay. Cells were washed twice with 150 μl of either sodium buffer (137 mM NaCl, 5.4 mM KCl, 2.8 mM CaCl2, 1.2 mM MgCl2, 10 mM tris(hydroxymethyl)aminomethane/N-2-hydroxyethylpiperazine-N′-ethanesulfonic acid [Tris/Hepes], pH 7.2) or sodium-free buffer (137 mM N-methyl-glucamine, 5.4 mM KCl, 2.8 mM CaCl2, 1.2 mM MgCl2, 10 mM Tris/Hepes, pH 7.2). Test compound in 50 μl each of sodium or sodium-free buffer containing 40 μCi/ml methyl-α-D-[U-^14C] glucopyranoside (Amersham Biosciences/GE Healthcare), either with (symbols in parentheses) or without (symbols without parentheses) 25% human serum, was added per well of a 96-well plate and incubated at 37° C. with shaking for either 2 h (SGLT1 assay) or 1.5 h (SGLT2 assay). Cells were washed twice with 150 μl of wash buffer (137 mM N-methylglucamine, 10 mM Tris/Hepes, pH 7.2) and methyl-α-D-[U-^14C]glucopyranoside uptake was quantitated using a TopCount scintillation counter (PerkinElmer, Inc.). Sodium-dependent glucopyranoside uptake was measured by subtracting the values obtained with sodium-free buffer from those obtained using sodium buffer (average of triplicate determinations).

The target of experiment [2] is T2, human SGLT2 (Homo sapiens, UniProt P31639).
T2 construct: A full-length cDNA clone expressing human SGLT2 (GenScript Corporation)
T2 sequence (P31639 1-672): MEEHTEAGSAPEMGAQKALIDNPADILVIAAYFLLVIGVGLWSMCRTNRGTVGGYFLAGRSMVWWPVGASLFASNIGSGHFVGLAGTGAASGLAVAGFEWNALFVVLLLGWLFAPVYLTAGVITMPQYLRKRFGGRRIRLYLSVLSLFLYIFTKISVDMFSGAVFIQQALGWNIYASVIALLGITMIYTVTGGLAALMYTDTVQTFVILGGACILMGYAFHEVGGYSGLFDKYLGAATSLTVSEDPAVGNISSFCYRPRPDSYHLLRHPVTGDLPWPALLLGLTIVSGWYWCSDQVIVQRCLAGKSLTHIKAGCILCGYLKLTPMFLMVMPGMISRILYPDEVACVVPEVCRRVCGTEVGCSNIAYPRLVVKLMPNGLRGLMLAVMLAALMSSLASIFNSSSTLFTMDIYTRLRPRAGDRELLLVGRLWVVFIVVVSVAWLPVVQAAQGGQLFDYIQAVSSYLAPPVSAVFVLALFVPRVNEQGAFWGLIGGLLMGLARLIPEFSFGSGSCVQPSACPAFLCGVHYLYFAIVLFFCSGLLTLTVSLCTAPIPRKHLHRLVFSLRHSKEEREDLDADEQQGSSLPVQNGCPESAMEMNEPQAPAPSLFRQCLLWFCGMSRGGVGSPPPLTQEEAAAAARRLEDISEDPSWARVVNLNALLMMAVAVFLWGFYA
Nature of the experiment: Methyl-α-D-[U-14C]glucopyranoside uptake assay, cells stably expressing human SGLT2. The conditions noted are these: HEK293.ETN cells expressing human SGLT2, 1.5 h incubation. The class given is cell-based.
Text: A full-length cDNA clone expressing human SGLT2 (GenScript Corporation) was subcloned into Hind III and Not I sites of pEAK15 expression vector. Clones harboring the cDNA inserts were identified by restriction analysis.
Plasmid containing human SGLT2 was linearized with Nsi I and purified by agarose gel electrophoresis. Using Lipofectamine 2000 Transfection Reagent (Invitrogen Corporation), DNA was transfected into HEK293.ETN cells and cultured in Dulbecco's Modified Eagle Medium (DMEM) containing 10% fetal bovine serum (FBS) at 37° C. under 5% CO2 for 24 h. Transfectants were selected in the same growth medium supplemented with puromycin (Invitrogen Corporation) for two weeks. Puromycin-resistant cells were recovered and seeded on a fresh 96-well plate (single cell per well) and cultured in the presence of puromycin until cells became confluent. Puromycin-resistant clones were evaluated for SGLT2 activity in the methyl-α-D-[U-^14C]glucopyranoside uptake assay described below.
as §1

Setting [3] is: without human serum (symbols without parentheses).
[4] abbreviates: with 25% human serum (symbols in parentheses).

Regarding `CCc1ccc(Cc2cc3c(cc2Cl)OC(O)C[C@]32O[C@H](CO)[C@@H](O)[C@H](O)[C@H]2O)cc1` (stereo partly drawn) [Compound 44, (2′S,3′R,4′S,5′S,6′R)-7-chloro-6-(4-ethylbenzyl)-6′-(hydroxymethyl)-3′,4′,5′,6′-tetrahydrospiro[chroman-4,2′-pyran]-2,3′,4′,5′-tetraol], the IC50 – broadly, the concentration that gives 50% inhibition – in experiment [1] (setting [3]) was over 100 µM; in experiment [2] (setting [3]), under 1 µM.
For the compound `CCc1ccc(Cc2cc3c(cc2Cl)OC(OC)C[C@]32O[C@H](CO)[C@@H](O)[C@H](O)[C@H]2O)cc1` (stereo partly drawn) [Compound 43, (2′S,3′R,4′S,5′S,6′R)-7-chloro-6-(4-ethylbenzyl)-6′-(hydroxymethyl)-2-methoxy-3′,4′,5′,6′-tetrahydrospiro[chroman-4,2′-pyran]-3′,4′,5′-triol], the results for the IC50 in experiment [1] (setting [3]) and in experiment [2] (setting [3]) were over 100 µM and under 1 µM, respectively.
For the compound `CCc1ccc(Cc2cc3c(cc2Cl)OC(C)(C)C[C@]32O[C@H](CO)[C@@H](O)[C@H](O)[C@H]2O)cc1` [Compound 57, (2′S,3′R,4′S,5′S,6′R)-7-chloro-6-(4-ethylbenzyl)-6′-(hydroxymethyl)-2,2-dimethyl-3′,4′,5′,6′-tetrahydrospiro[chroman-4,2′-pyran]-3′,4′,5′-triol], the IC50 in experiment [1] (setting [4]) was over 100 µM; in experiment [2] (setting [4]), under 1 µM.
With `CCc1ccc(Cc2cc3c(cc2Cl)OC(C)C[C@]32O[C@H](CO)[C@@H](O)[C@H](O)[C@H]2O)cc1` (stereo partly drawn) [Compound 47, (2′S,3′R,4′S,5′S,6′R)-7-chloro-6-(4-ethylbenzyl)-6′-(hydroxymethyl)-2-methyl-3′,4′,5′,6′-tetrahydrospiro[chroman-4,2′-pyran]-3′,4′,5′-triol], the IC50 in experiment [1] (setting [4]) was over 100 µM; in experiment [2] (setting [4]), under 1 µM.
Take `CCc1ccc(Cc2cc3c(cc2Cl)OCCC[C@]32O[C@H](CO)[C@@H](O)[C@H](O)[C@H]2O)cc1` [Compound 38, (2′S,3′R,4′S,5′S,6′R)-8-chloro-7-(4-ethylbenzyl)-6′-(hydroxymethyl)-3,3′,4,4′,5′,6′-hexahydro-2H-spiro[benzo[b]oxepine-5,2′-pyran]-3′,4′,5′-triol]: the half-inhibitory concentration (IC50) was 10 to 100 µM in experiment [1] (setting [4]) and under 1 µM in experiment [2] (setting [4]).
On the same counts, the results for `CCc1ccc(Cc2cc3c(cc2Cl)OC[C@]32O[C@H](CO)[C@@H](O)[C@H](O)[C@H]2O)cc1` [Compound 30, (2′R,3′R,4′S,5′S,6′R)-6-chloro-5-(4-ethylbenzyl)-6′-(hydroxymethyl)-3′,4′,5′,6′-tetrahydro-2H-spiro[benzofuran-3,2′-pyran]-3′,4′,5′-triol] are 10 to 100 µM and under 1 µM.
Take `CCc1ccc(Cc2cc3c(cc2Cl)OCC[C@]32O[C@H](CO)[C@@H](O)[C@H](O)[C@H]2O)cc1` [Compound 20, (2′S,3′R,4′S,5′S,6′R)-7-chloro-6-(4-ethylbenzyl)-6′-(hydroxymethyl)-3′,4′,5′,6′-tetrahydrospiro[chroman-4,2′-pyran]-3′,4′,5′-triol]: the IC50 is 10 to 100 µM in experiment [1] (setting [3]) and under 1 µM in experiment [2] (setting [3]).
`CCc1ccc(Cc2ccc3c(c2)[C@]2(CCO3)O[C@H](CO)[C@@H](O)[C@H](O)[C@H]2O)cc1` [Compound 12, (2′S,3′R,4′S,5′S,6′R)-6-(4-ethylbenzyl)-6′-(hydroxymethyl)-3′,4′,5′,6′-tetrahydrospiro[chroman-4,2′-pyran]-3′,4′,5′-triol]: the IC50 is over 100 µM in experiment [1] (setting [3]) and under 1 µM in experiment [2] (setting [3]).
As to `CCc1ccc(Cc2cc3c(cc2Cl)OC(C)(CO)C[C@]32O[C@H](CO)[C@@H](O)[C@H](O)[C@H]2O)cc1` (stereo partly drawn) [Compound 52, (2′S,3′R,4′S,5′S,6′R)-7-chloro-6-(4-ethylbenzyl)-2,6′-bis(hydroxymethyl)-2-methyl-3′,4′,5′,6′-tetrahydrospiro[chroman-4,2′-pyran]-3′,4′,5′-triol], the IC50 in experiment [1] (setting [4]) is over 100 µM; in experiment [2] (setting [4]), under 1 µM.
